Measured values from PubChem BioAssay (NCI).
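Cells were grown in 96-well plates and exposed to each compound for 48 hours at five concentrations; endpoints were interpolated linearly between bracketing concentrations, or set to the highest concentration if not reached. At the TGI there is no net growth.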

System: P388/ADR leukemia
Experiment: NCI tumour cell line growth inhibition, 48 h

How did the TGI turn out when `CCCCCCCC(=O)O[C@H]1[C@H]2[C@@H](CC1(C)C)C(=O)[C@]13O[C@H]1C(=O)[C@]1(CO1)[C@]23C` was run?
Its TGI is 1650 nM.
